Results taken from paper PMC6162447, “Engineering Gain-of-Function Analogues of the Spider Venom Peptide HNTX-I, A Potent Blocker of the hNaV1.7 Sodium Channel” (Toxins, 2018).
Bridge positions count the residues as written; N and C are the ends. Peptide text beside a SMILES is read from it.

Target: T1, hNaV1.7 (Homo sapiens, UniProt Q15858)
T1 construct: expressed in transfected cells; host or cells: HEK 293
Assay: Whole-cell patch clamp on hNaV1.7 expressed in HEK 293 cells
Format: cell-based
Conditions: for IC50: HEK 293 cells transfected with hNaV1.7 plus human β1 and β2 subunits, room temperature (20–25 °C), 50 ms depolarization to −10 mV from holding −100 mV, mean ± SEM; for Activity on NaV1.7 at a concentration of 10 µM: 10 µM peptide, HEK 293 cells (Figure 2A–C)
Description: We maintained human embryonic kidney (HEK) 293 cells at 37 °C in a humidified 5% CO2 incubator in Dulbecco’s Modified Eagle’s Medium (DMEM) supplemented with 10% fetal bovine serum (FBS), 2 mM L-glutamine, 100 units/mL penicillin and 100 µg/mL streptomycin. cDNA genes encoding rat Nav1.2 and mouse Nav1.6 were subcloned into the vectors pcDNA3.1, respectively. We subcloned the gene that encodes hNaV1.7 into the vector pcDNA3.1-mod. We transfected the hNaV1.7 channel (3 μg) together with plasmids β1- (1 μg) and β2-eGFP ([…]), which encode the human β1 and β2 subunits, and Nav1.2 and Nav1.6 together with eGFP in HEK 293 cells using Lipofectamine 2000 (Invitrogen, Carlsbad, CA, USA) per the manufacturer’s instructions.
We performed whole-cell recordings using an EPC 10 patch clamp platform (HEKA, Elektronik, Lambrecht, Germany) at room temperature (20–25 °C). We made suction pipettes with access resistance of 2.0–3.0 MΩ from borosilicate glass capillary tubes (VWR micropipettes; VWR Co., West Chester, PA, USA) using a 2-step vertical microelectrode puller (PC-10; Narishige Co., Ltd., Tokyo, Japan) and compensated for voltage errors using 80% serial-resistance compensation. The standard pipette solution contained (in mM): 140 CsCl, 10 NaCl, 1 ethylene glycol-bis (β-aminoethyl ether)-N,N,N′,N′-tetraacetic acid (EGTA), and 10 HEPES (pH 7.4). The bath solution contained (in mM): 140 NaCl, 2 CaCl2, 1 MgCl2, 5 KCl, 20 4-(2-hydroxyethyl)-1-piperazineethanesulfonic acid (HEPES) and 10 glucose (pH 7.4). We purchased all chemicals from Sigma-Aldrich (St. Louis, MO, USA) and dissolved them in water. Data were acquired using PATCHMASTER software version 2x73 (HEKA Elektronik Dr. Schulze GmbH, Lambrecht, Germany). We filtered macroscopic sodium currents at 5 kHz and sampled them at 20 kHz. We acquired voltage clamp recordings 5 min after establishing a whole-cell configuration to allow adequate equilibration between the micropipette solution and the cell interior. We elicited channel current by 50 milliseconds of depolarization potential to −10 mV from the holding voltage of −100 mV.
We analyzed the data using Igor Pro software version 6.10A (WaveMetrics, Lake Oswego, OR, USA), Sigmaplot software version 10 (Sigma, St. Louis, MO, USA), OriginPro software version 8 (OriginLab Corp., Northampton, MA, USA) and Prism software version 5 (GraphPad Software, San Diego, CA, USA). Concentration–response curves were fitted using the following Hill logistic equation:y = fmax − (fmax − fmin)/(1 + (x/IC50)^n)(1) where fmax and fmin respectively represent the channel’s maximum and minimum responses to toxins, fmin was set to 0, x represents toxin concentration and n is an empirical Hill coefficient. All quantitative results are presented as mean ± standard error of the mean (SEM).

T1 sequence (O60939 30-215): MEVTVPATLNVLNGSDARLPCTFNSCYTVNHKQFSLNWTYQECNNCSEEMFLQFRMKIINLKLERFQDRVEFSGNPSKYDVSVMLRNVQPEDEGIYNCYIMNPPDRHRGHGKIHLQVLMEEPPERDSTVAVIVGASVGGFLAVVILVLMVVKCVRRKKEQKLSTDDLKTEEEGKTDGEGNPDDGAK
T1 sequence (Q07699 19-218, further chain): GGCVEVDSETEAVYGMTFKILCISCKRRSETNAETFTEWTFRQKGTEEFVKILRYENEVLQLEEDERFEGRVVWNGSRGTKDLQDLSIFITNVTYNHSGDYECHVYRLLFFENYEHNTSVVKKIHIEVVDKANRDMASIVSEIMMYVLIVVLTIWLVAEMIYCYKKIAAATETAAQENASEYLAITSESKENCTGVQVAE
T1 sequence (Q15858 other isoform, or with tags, fused parts or gaps): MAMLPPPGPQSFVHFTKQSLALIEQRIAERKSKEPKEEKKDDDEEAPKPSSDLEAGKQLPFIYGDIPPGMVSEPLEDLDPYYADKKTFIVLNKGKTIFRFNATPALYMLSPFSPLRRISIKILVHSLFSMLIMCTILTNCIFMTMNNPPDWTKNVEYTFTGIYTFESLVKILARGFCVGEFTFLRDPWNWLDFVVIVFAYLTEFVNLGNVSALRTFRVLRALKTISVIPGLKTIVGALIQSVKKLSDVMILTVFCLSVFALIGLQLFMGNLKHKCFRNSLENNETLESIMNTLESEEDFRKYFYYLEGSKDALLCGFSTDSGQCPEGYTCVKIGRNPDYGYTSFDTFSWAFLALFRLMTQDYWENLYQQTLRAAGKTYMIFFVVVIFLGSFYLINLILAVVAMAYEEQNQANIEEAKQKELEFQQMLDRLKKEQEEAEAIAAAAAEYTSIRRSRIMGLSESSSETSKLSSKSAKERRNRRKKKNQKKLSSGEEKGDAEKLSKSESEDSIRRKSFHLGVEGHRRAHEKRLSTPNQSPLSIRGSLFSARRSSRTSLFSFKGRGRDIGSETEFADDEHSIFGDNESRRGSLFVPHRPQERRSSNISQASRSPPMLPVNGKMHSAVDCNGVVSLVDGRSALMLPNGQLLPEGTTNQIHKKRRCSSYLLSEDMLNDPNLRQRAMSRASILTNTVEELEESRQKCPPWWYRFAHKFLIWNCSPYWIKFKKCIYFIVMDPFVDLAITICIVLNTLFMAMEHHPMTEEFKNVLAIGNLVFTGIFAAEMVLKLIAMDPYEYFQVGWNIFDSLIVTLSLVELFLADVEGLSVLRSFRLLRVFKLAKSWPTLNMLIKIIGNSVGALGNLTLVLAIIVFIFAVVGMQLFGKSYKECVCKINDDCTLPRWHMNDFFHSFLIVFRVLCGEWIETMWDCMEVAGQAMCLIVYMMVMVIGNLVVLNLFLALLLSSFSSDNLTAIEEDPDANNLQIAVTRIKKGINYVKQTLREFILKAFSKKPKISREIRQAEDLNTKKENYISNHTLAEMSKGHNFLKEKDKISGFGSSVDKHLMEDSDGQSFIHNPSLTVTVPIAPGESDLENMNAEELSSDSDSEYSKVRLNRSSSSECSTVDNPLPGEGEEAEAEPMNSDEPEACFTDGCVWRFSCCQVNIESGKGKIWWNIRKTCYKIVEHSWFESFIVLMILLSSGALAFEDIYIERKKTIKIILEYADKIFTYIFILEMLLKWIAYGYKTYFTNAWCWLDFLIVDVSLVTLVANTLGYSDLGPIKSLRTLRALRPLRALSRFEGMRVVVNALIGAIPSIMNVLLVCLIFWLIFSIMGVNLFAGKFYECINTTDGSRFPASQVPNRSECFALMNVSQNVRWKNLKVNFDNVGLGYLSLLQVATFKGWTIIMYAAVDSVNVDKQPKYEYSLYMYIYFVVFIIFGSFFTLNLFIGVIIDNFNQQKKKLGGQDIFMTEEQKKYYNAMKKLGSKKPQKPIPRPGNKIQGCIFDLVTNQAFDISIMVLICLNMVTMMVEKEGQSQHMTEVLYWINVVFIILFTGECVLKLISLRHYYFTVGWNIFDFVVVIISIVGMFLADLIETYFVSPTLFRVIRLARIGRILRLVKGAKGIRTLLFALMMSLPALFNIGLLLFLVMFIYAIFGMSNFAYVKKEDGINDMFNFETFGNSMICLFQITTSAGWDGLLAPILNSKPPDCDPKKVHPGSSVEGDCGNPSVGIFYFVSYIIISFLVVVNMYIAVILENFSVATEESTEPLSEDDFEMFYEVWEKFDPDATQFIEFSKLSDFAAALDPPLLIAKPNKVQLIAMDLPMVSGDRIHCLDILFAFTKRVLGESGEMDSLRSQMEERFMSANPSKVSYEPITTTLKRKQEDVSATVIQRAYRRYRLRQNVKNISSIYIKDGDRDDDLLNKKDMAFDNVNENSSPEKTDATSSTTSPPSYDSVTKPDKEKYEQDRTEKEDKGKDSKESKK

| Compound | IC50 (n ≥ 3, SEM) | Activity on NaV1.7 at a concentration of 10 µM | IC50 (n ≥ 3) |
| --- | --- | --- | --- |
| CC(C)C[C@H](NC(=O)[C@H](CC(C)C)NC(=O)[C@@H](NC(=O)[C@H](CCCCN)NC(=O)[C@@H]1CSSC[C@@H]2NC(=O)[C@H](CCC(=O)O)NC(=O)[C@H](CC(N)=O)NC(=O)[C@H](CCCCN)NC(=O)CNC(=O)[C@@H]3CCCN3C(=O)[C@H](C(C)C)NC(=O)[C@@H]3CSSC[C@H](NC(=O)[C@H](C)NC(=O)[C@H](Cc4ccc(O)cc4)NC(=O)CNC(=O)[C@H](CO)NC(=O)[C@H](CSSC[C@H](NC(=O)[C@@H](N)CCC(=O)O)C(=O)N[C@@H](CCCCN)C(=O)NCC(=O)N[C@@H](Cc4ccccc4)C(=O)NCC(=O)N[C@@H](CCCCN)C(=O)N[C@@H](CO)C(=O)N3)NC2=O)C(=O)N[C@@H](CC(N)=O)C(=O)N[C@@H](CO)C(=O)N[C@@H](CCCNC(=N)N)C(=O)N[C@@H](Cc2c[nH]cn2)C(=O)N[C@@H](CCCCN)C(=O)N[C@@H](Cc2c[nH]c3ccccc23)C(=O)N1)C(C)C)C(=O)O [D26H] (H-ECKGFGKSCVPGKNECCSGYACNSRHKWCKVLL-OH; disulfide 2-17, 9-22, 16-29) | 1500 ± 93 nM | – | – |
| CC(C)C[C@H](NC(=O)[C@H](CC(C)C)NC(=O)[C@@H](NC(=O)[C@H](CCCCN)NC(=O)[C@@H]1CSSC[C@@H]2NC(=O)[C@H](CCC(=O)O)NC(=O)[C@H](CC(N)=O)NC(=O)[C@H](CCCCN)NC(=O)CNC(=O)[C@@H]3CCCN3C(=O)[C@H](C(C)C)NC(=O)[C@@H]3CSSC[C@H](NC(=O)[C@H](C)NC(=O)[C@H](Cc4ccc(O)cc4)NC(=O)CNC(=O)[C@H](CO)NC(=O)[C@H](CSSC[C@H](NC(=O)CN)C(=O)N[C@@H](CCCCN)C(=O)NCC(=O)N[C@@H](Cc4ccccc4)C(=O)NCC(=O)N[C@@H](CCCCN)C(=O)N[C@@H](CO)C(=O)N3)NC2=O)C(=O)N[C@@H](CC(N)=O)C(=O)N[C@@H](CO)C(=O)N[C@@H](CCCNC(=N)N)C(=O)N[C@@H](CC(=O)O)C(=O)N[C@@H](CCCCN)C(=O)N[C@@H](Cc2c[nH]c3ccccc23)C(=O)N1)C(C)C)C(=O)O [E1G] (H-GCKGFGKSCVPGKNECCSGYACNSRDKWCKVLL-OH; disulfide 2-17, 9-22, 16-29 (inferred); N-terminus and C-terminus assumed) | – | negligible activity | > 10000 nM |
| CC(C)C[C@H](NC(=O)[C@H](CC(C)C)NC(=O)[C@@H](NC(=O)[C@H](CCCCN)NC(=O)[C@@H]1CSSC[C@@H]2NC(=O)[C@H](CCC(=O)O)NC(=O)[C@H](CC(N)=O)NC(=O)[C@H](CCCCN)NC(=O)CNC(=O)[C@@H]3CCCN3C(=O)[C@H](C(C)C)NC(=O)[C@@H]3CSSC[C@H](NC(=O)[C@H](C)NC(=O)[C@H](Cc4ccc(O)cc4)NC(=O)CNC(=O)[C@H](CO)NC(=O)[C@H](CSSC[C@H](NC(=O)CN)C(=O)N[C@@H](CCCCN)C(=O)NCC(=O)N[C@@H](Cc4ccccc4)C(=O)NCC(=O)N[C@@H](CCCCN)C(=O)N[C@@H](CO)C(=O)N3)NC2=O)C(=O)N[C@@H](CO)C(=O)N[C@@H](CO)C(=O)N[C@@H](CCCNC(=N)N)C(=O)N[C@@H](Cc2c[nH]cn2)C(=O)N[C@@H](CCCCN)C(=O)N[C@@H](Cc2c[nH]c3ccccc23)C(=O)N1)C(C)C)C(=O)O [E1G–N23S–D26H] (H-GCKGFGKSCVPGKNECCSGYACSSRHKWCKVLL-OH; disulfide 2-17, 9-22, 16-29) | 179 ± 24 nM | – | – |
| CC(C)C[C@H](NC(=O)[C@H](Cc1c[nH]c2ccccc12)NC(=O)[C@@H](NC(=O)[C@H](CCCCN)NC(=O)[C@@H]1CSSC[C@@H]2NC(=O)[C@H](CCC(=O)O)NC(=O)[C@H](CC(N)=O)NC(=O)[C@H](CCCCN)NC(=O)CNC(=O)[C@@H]3CCCN3C(=O)[C@H](C(C)C)NC(=O)[C@@H]3CSSC[C@H](NC(=O)[C@H](C)NC(=O)[C@H](Cc4ccc(O)cc4)NC(=O)CNC(=O)[C@H](CO)NC(=O)[C@H](CSSC[C@H](NC(=O)CN)C(=O)N[C@@H](CCCCN)C(=O)NCC(=O)N[C@@H](Cc4ccccc4)C(=O)NCC(=O)N[C@@H](CCCCN)C(=O)N[C@@H](CO)C(=O)N3)NC2=O)C(=O)N[C@@H](CO)C(=O)N[C@@H](CO)C(=O)N[C@@H](CCCNC(=N)N)C(=O)N[C@@H](Cc2c[nH]cn2)C(=O)N[C@@H](CCCCN)C(=O)N[C@@H](Cc2c[nH]c3ccccc23)C(=O)N1)C(C)C)C(=O)O [E1G–N23S–D26H–L32W] (H-GCKGFGKSCVPGKNECCSGYACSSRHKWCKVWL-OH; disulfide 2-17, 9-22, 16-29) | 36 ± 7 nM | – | – |
| CC(C)C[C@H](NC(=O)[C@H](CC(C)C)NC(=O)[C@@H](NC(=O)[C@H](CCCCN)NC(=O)[C@@H]1CSSC[C@@H]2NC(=O)[C@H](CCC(=O)O)NC(=O)[C@H](CC(N)=O)NC(=O)[C@H](CCCCN)NC(=O)CNC(=O)[C@@H]3CCCN3C(=O)[C@H](C(C)C)NC(=O)[C@@H]3CSSC[C@H](NC(=O)[C@H](C)NC(=O)[C@H](Cc4ccc(O)cc4)NC(=O)CNC(=O)[C@H](CO)NC(=O)[C@H](CSSC[C@H](NC(=O)CN)C(=O)N[C@@H](CCCCN)C(=O)NCC(=O)N[C@@H](Cc4ccccc4)C(=O)NCC(=O)N[C@@H](CCCCN)C(=O)N[C@@H](CO)C(=O)N3)NC2=O)C(=O)N[C@@H](CC(N)=O)C(=O)N[C@@H](CO)C(=O)N[C@@H](CCCCN)C(=O)N[C@@H](Cc2c[nH]cn2)C(=O)N[C@@H](CCCCN)C(=O)N[C@@H](Cc2c[nH]c3ccccc23)C(=O)N1)C(C)C)C(=O)O [E1G–R25K–D26H] (H-GCKGFGKSCVPGKNECCSGYACNSKHKWCKVLL-OH; disulfide 2-17, 9-22, 16-29) | 766 ± 29 nM | – | – |
| CC(C)C[C@H](NC(=O)[C@H](Cc1c[nH]c2ccccc12)NC(=O)[C@@H](NC(=O)[C@H](CCCCN)NC(=O)[C@@H]1CSSC[C@@H]2NC(=O)[C@H](CCC(=O)O)NC(=O)[C@H](CC(N)=O)NC(=O)[C@H](CCCCN)NC(=O)CNC(=O)[C@@H]3CCCN3C(=O)[C@H](C(C)C)NC(=O)[C@@H]3CSSC[C@H](NC(=O)[C@H](C)NC(=O)[C@H](Cc4ccc(O)cc4)NC(=O)CNC(=O)[C@H](CO)NC(=O)[C@H](CSSC[C@H](NC(=O)CN)C(=O)N[C@@H](CCCCN)C(=O)NCC(=O)N[C@@H](Cc4ccccc4)C(=O)NCC(=O)N[C@@H](CCCCN)C(=O)N[C@@H](CO)C(=O)N3)NC2=O)C(=O)N[C@@H](CC(N)=O)C(=O)N[C@@H](CO)C(=O)N[C@@H](CCCCN)C(=O)N[C@@H](Cc2c[nH]cn2)C(=O)N[C@@H](CCCCN)C(=O)N[C@@H](Cc2c[nH]c3ccccc23)C(=O)N1)C(C)C)C(=O)O [E1G–R25K–D26H–L32W] (H-GCKGFGKSCVPGKNECCSGYACNSKHKWCKVWL-OH; disulfide 2-17, 9-22, 16-29) | 669 ± 70 nM | – | – |
| CC(C)C[C@H](NC(=O)[C@H](Cc1c[nH]c2ccccc12)NC(=O)[C@@H](NC(=O)[C@H](CCCCN)NC(=O)[C@@H]1CSSC[C@@H]2NC(=O)[C@H](CCC(=O)O)NC(=O)[C@H](CC(N)=O)NC(=O)[C@H](CCCCN)NC(=O)CNC(=O)[C@@H]3CCCN3C(=O)[C@H](C(C)C)NC(=O)[C@@H]3CSSC[C@H](NC(=O)[C@H](C)NC(=O)[C@H](Cc4ccc(O)cc4)NC(=O)CNC(=O)[C@H](CO)NC(=O)[C@H](CSSC[C@H](NC(=O)[C@@H](N)CCC(=O)O)C(=O)N[C@@H](CCCCN)C(=O)NCC(=O)N[C@@H](Cc4ccccc4)C(=O)NCC(=O)N[C@@H](CCCCN)C(=O)N[C@@H](CO)C(=O)N3)NC2=O)C(=O)N[C@@H](CC(N)=O)C(=O)N[C@@H](CO)C(=O)N[C@@H](CCCNC(=N)N)C(=O)N[C@@H](CC(=O)O)C(=O)N[C@@H](CCCCN)C(=O)N[C@@H](Cc2c[nH]c3ccccc23)C(=O)N1)C(C)C)C(=O)O [L32W] (H-ECKGFGKSCVPGKNECCSGYACNSRDKWCKVWL-OH; disulfide 2-17, 9-22, 16-29 (inferred); N-terminus and C-terminus assumed) | – | negligible activity | > 10000 nM |
